Measurements published in patent US20230277612A1, “SAPONIN DERIVATIVES FOR USE IN MEDICINE” (priority 2020, published 2023).
Read-outs that look alike come from different tables or passages of the source.

Legend:
[1] = system: EGFR expressing cells (HeLa and A431); conditions: summary in description
[2] = Critical micellar concentration (CMC) by ANS fluorescence; assay type: physicochemical; conditions: for CMC: Table A7, determined in PBS
Experimental: The critical micellar concentration (CMC) of saponins derived from Saponaria officinalis (SO) (Table A7) and derived from Quillaja saponaria (QS) (Table A8, and Table A9) was determined by the method of DeVendittis et al. (A fluorimetric method for the estimation of the critical micelle concentration of surfactants, Analytical Biochemistry, Volume 115, Issue 2, August 1981, Pages 278-286) as follows:
(§1) The emission spectrum of 8-Anilinonaphthalene-1-sulfonic acid (ANS) in either purified water (MQ) or PBS (Dulbecco's PBS+/+) was determined at dry weight concentrations of saponins ranging from 1 to 1400 pM to cover the range below and above the CMC. Above the CMC, the fluorescence yield of ANS increases and the wavelength of maximum emission decreases due to portioning of the fluorescent dye into micelles. Fluorescence yields were recorded on a Fluoroskan Ascent FL (Thermo Scientific) at an excitation wavelength of 355 nm, and an emission wavelength of 460 nm. 6 μg at a concentration of 75.86 pM of ANS were used per sample and measurement.
The critical micellar concentration (CMC) of saponins was determined by the method of DeVendittis et al. (A fluorimetric method for the estimation of the critical micelle concentration of surfactants, Analytical Biochemistry, Volume 115, Issue 2, August 1981, Pages 278-286) as follows:
as §1, with “μM” for “pM”

[3] = system: EGFR expressing cells (HeLa); assay type: cell-based; conditions: HeLa; + 5 pM EGFdianthin; read-out: IC50 endosomal escape enhancing activity
[4] = system: EGFR expressing cells (A431); assay type: cell-based; conditions: A431; + 5 pM EGFdianthin; read-out: IC50 endosomal escape enhancing activity
[5] = system: A431 cells; test: cells; assay type: cell-based
Experimental: (§2) (FIGS. 66a and 66B). Next toxicity was determined, for this the modified saponins were titrated on HeLa and A431 cells. […] Next toxicity was determined, for this the modified saponins were titrated on HeLa and A431 cells.

[6] = system: HeLa cells; test: cells; assay type: cell-based; conditions: Table A5, saponin alone, read-out: IC50 nM (Toxicity)
Experimental: as §2

[7] = system: human red blood cells; test: cells; assay type: cell-based
Experimental: Red blood cells (RBCs) were isolated from a buffy coat using a Ficoll gradient. The obtained RBC pellet (˜4-5 ml) was washed 2× with 50 ml DPBS (without Ca^2+/Mg^2+, PAN-Biotech GmbH). Cells were pelleted by centrifugation for 10 min, 800×g at RT. RBC were counted and resuspended at 500.000.000 c/ml in DPBS (without Ca^2+/Mg^2+), based on total cell count.
(§3) Saponin dilutions were prepared in DPBS (with Ca^2+/Mg^2+, PAN-Biotech GmbH), at 1.11× final strength. For positive lysis control a 0.02% Triton-X100 solution was prepared in DPBS^+/+. Of all compound solutions 135 μl was dispensed/well in a 96 well V-bottom plate. To this 15 μl RBC suspension was added and mixed shortly (10 sec-600 rpm). The plate was incubated 30 min at RT, with gentle agitation. Afterwards the plate was spun for 10 min at 800×g to pellet the RBC and 100-120 μl supernatant was transferred to a standard 96 wp (96 well-plate).
as §3, with “DPBS+/+.” for “DPBS^+/+.”

[8] = Table A5, read-out: IC50 nM (hemolysis)
[9] = Table A6, read-out: IC50 nM (hemolysis)

Question: Which “Endosomal escape enhancing activity (enhancement of cytotoxicity of effector conjugate)” value (shortened to “Endosomal escape enhancing activity”) [1] does the source give for CC(=O)OC1C(C)OC(OC2C(C)OC(OC(=O)[C@]34CCC(C)(C)CC3C3=CCC5[C@@]6(C)CC[C@H](OC7OC(C(=O)NC(C)(CO)CO)C(O)C(OC8OCC(O)C(O)C8O)C7OC7OC(CO)C(O)C(O)C7O)[C@@](C)(C=O)C6CC[C@@]5(C)[C@]3(C)C[C@H]4O)C(OC3OC(C)C(OC4OCC(O)C(OC5OC(CO)C(O)C(O)C5O)C4O)C(O)C3O)C2O)C(O)C1OC1OCC(O)C(O)C1O (stereo partly shown) [Molecule 3A] here?
Answer: The value was “display activity”.

Question: With CC(=O)OC1C(C)OC(OC2C(C)OC(OC(=O)[C@]34CCC(C)(C)CC3C3=CCC5[C@@]6(C)CC[C@H](OC7OC(C(=O)O)C(O)C(OC8OCC(O)C(O)C8O)C7OC7OC(CO)C(O)C(O)C7O)[C@@](C)(CO)C6CC[C@@]5(C)[C@]3(C)C[C@H]4O)C(OC3OC(C)C(OC4OCC(O)C(OC5OC(CO)C(O)C(O)C5O)C4O)C(O)C3O)C2O)C(O)C1OC1OCC(O)C(O)C1O (stereo partly shown) [Molecule 6] as the molecule, how does the “CMC compared to corresponding underivatised saponin” value [2] read?
Answer: The value was “increased CMC”.

Question: And the “Endosomal escape enhancing activity” value [1]?
Answer: Its value is “have the capacity to enhance the cytotoxic effect”.

Question: With CC1OC(OC2C(C)OC(OC(=O)[C@]34CCC(C)(C)CC3C3=CCC5[C@@]6(C)CC[C@H](OC7OC(C(=O)O)C(O)C(OC8OCC(O)C(O)C8O)C7OC7OC(CO)C(O)C(O)C7O)[C@@](C)(C=O)C6CC[C@@]5(C)[C@]3(C)C[C@H]4O)C(OC3OC(C)C(OC4OCC(O)C(OC5OC(CO)C(O)C(O)C5O)C4O)C(O)C3O)C2O)C(O)C(OC2OCC(O)C(O)C2O)C1O (stereo partly shown) [Molecule 8] as the molecule, how does the “CMC compared to corresponding underivatised saponin” value [2] read?
Answer: Its value is “increased CMC”.

Question: And the “Endosomal escape enhancing activity” value [1]?
Answer: The value was “display activity”.

Question: For CC(=O)OC1C(C)OC(OC2C(C)OC(OC(=O)[C@]34CCC(C)(C)CC3C3=CCC5[C@@]6(C)CC[C@H](OC7OC(C(=O)NC(C)(CO)CO)C(O)C(OC8OCC(O)C(O)C8O)C7OC7OC(CO)C(O)C(O)C7O)[C@@](C)(CO)C6CC[C@@]5(C)[C@]3(C)C[C@H]4O)C(OC3OC(C)C(OC4OCC(O)C(OC5OC(CO)C(O)C(O)C5O)C4O)C(O)C3O)C2O)C(O)C1OC1OCC(O)C(O)C1O (stereo partly shown) [Molecule 9], which “Endosomal escape enhancing activity” value [1] is on record?
Answer: The value was “have the capacity to enhance the cytotoxic effect”.

Question: For CC1OC(OC2C(C)OC(OC(=O)[C@]34CCC(C)(C)CC3C3=CCC5[C@@]6(C)CC[C@H](OC7OC(C(=O)O)C(O)C(OC8OCC(O)C(O)C8O)C7OC7OC(CO)C(O)C(O)C7O)[C@@](C)(CO)C6CC[C@@]5(C)[C@]3(C)C[C@H]4O)C(OC3OC(C)C(OC4OCC(O)C(OC5OC(CO)C(O)C(O)C5O)C4O)C(O)C3O)C2O)C(O)C(OC2OCC(O)C(O)C2O)C1O (stereo partly shown) [Molecule 10], which “CMC compared to corresponding underivatised saponin” value [2] is on record?
Answer: Its value is “increased CMC”.

Question: And the “Endosomal escape enhancing activity” value [1]?
Answer: The value was “have the capacity to enhance the cytotoxic effect”.

Question: With CC1OC(OC2C(C)OC(OC(=O)[C@]34CCC(C)(C)CC3C3=CCC5[C@@]6(C)CC[C@H](OC7OC(C(=O)NC(C)(CO)CO)C(O)C(OC8OCC(O)C(O)C8O)C7OC7OC(CO)C(O)C(O)C7O)[C@@](C)(C=O)C6CC[C@@]5(C)[C@]3(C)C[C@H]4O)C(OC3OC(C)C(OC4OCC(O)C(OC5OC(CO)C(O)C(O)C5O)C4O)C(O)C3O)C2O)C(O)C(OC2OCC(O)C(O)C2O)C1O (stereo partly shown) [Molecule 11] as the molecule, how does the “Endosomal escape enhancing activity” value [1] read?
Answer: The value was “display activity”.

Question: For CC(=O)OC1C(C)OC(OC2C(C)OC(OC(=O)C34CCC(C)(C)CC3C3=CCC5C6(C)CCC(OC7OC(C(=O)NC(C)(CO)CO)C(O)C(OC8OCC(O)C(O)C8O)C7OC7OC(CO)C(O)C(O)C7O)C(C)(C=NNC(=O)CCCCCN7C(=O)C=CC7=O)C6CCC5(C)C3(C)CC4O)C(OC3OC(C)C(OC4OCC(O)C(OC5OC(CO)C(O)C(O)C5O)C4O)C(O)C3O)C2O)C(O)C1OC1OCC(O)C(O)C1O (stereo not shown) [Molecule 14], which “Endosomal escape enhancing activity” value [1] is on record?
Answer: Its value is “have the capacity to enhance the cytotoxic effect”.

Question: With CC(=O)OC1C(C)OC(OC2C(C)OC(OC(=O)[C@]34CCC(C)(C)CC3C3=CCC5[C@@]6(C)CC[C@H](OC7OC(C(=O)NCCN8C(=O)C=CC8=O)C(O)C(OC8OCC(O)C(O)C8O)C7OC7OC(CO)C(O)C(O)C7O)[C@@](C)(C=O)C6CC[C@@]5(C)[C@]3(C)C[C@H]4O)C(OC3OC(C)C(OC4OCC(O)C(OC5OC(CO)C(O)C(O)C5O)C4O)C(O)C3O)C2O)C(O)C1OC1OCC(O)C(O)C1O (stereo partly shown) [Molecule 18] as the molecule, how does the “Endosomal escape enhancing activity” value [1] read?
Answer: Its value is “display activity”.

Question: Which “Endosomal escape enhancing activity” value [1] does the source give for CC1OC(OC2C(C)OC(OC(=O)[C@]34CCC(C)(C)CC3C3=CCC5[C@@]6(C)CC[C@H](OC7OC(C(=O)NCCN8C(=O)C=CC8=O)C(O)C(OC8OCC(O)C(O)C8O)C7OC7OC(CO)C(O)C(O)C7O)[C@@](C)(C=O)C6CC[C@@]5(C)[C@]3(C)C[C@H]4O)C(OC3OC(C)C(OC4OCC(O)C(OC5OC(CO)C(O)C(O)C5O)C4O)C(O)C3O)C2O)C(O)C(OC2OCC(O)C(O)C2O)C1O (stereo partly shown) [Molecule 19] here?
Answer: The value was “display activity”.

Question: For CC(=O)OC1C(C)OC(OC2C(C)OC(OC(=O)[C@]34CCC(C)(C)CC3C3=CCC5[C@@]6(C)CC[C@H](OC7OC(C(=O)NCCN8C(=O)C=CC8=O)C(O)C(OC8OCC(O)C(O)C8O)C7OC7OC(CO)C(O)C(O)C7O)[C@@](C)(CO)C6CC[C@@]5(C)[C@]3(C)C[C@H]4O)C(OC3OC(C)C(OC4OCC(O)C(OC5OC(CO)C(O)C(O)C5O)C4O)C(O)C3O)C2O)C(O)C1OC1OCC(O)C(O)C1O (stereo partly shown) [Molecule 20], which “Endosomal escape enhancing activity” value [1] is on record?
Answer: Its value is “have the capacity to enhance the cytotoxic effect”.

Question: With CC(=O)OC1C(C)OC(OC2C(C)OC(OC(=O)[C@]34CCC(C)(C)CC3C3=CCC5[C@@]6(C)CC[C@H](OC7OC(C(=O)NCCN8C(=O)C=CC8=O)C(O)C(OC8OCC(O)C(O)C8O)C7OC7OC(CO)C(O)C(O)C7O)[C@@](C)(CO)C6CC[C@@]5(C)[C@]3(C)C[C@H]4O)C(OC3OC(C)C(OC4OCC(O)C(OC5OC(CO)C(O)C(O)C5O)C4O)C(O)C3O)C2O)C(O)C1OC1OCC(O)C(O)C1O (stereo partly shown) [SO1861-(Glu-AEM)-(Ald-OH)] as the molecule, how does the IC50 [3] read?
Answer: The IC50 was 40 µM.

Question: And the IC50 [4]?
Answer: Its IC50 is 20 µM.

Question: And the IC50 ([5]; Table A6, saponin alone, read-out: IC50 nM (Toxicity))?
Answer: The IC50 was greater than 100000 nM.

Question: And the IC50 [6]?
Answer: Its IC50 is greater than 100000 nM.

Question: What about the IC50 [7, 8] of the same molecule?
Answer: The IC50 was greater than 1e+06 nM.

Question: And the IC50 [7, 9]?
Answer: Its IC50 is greater than 1e+06 nM.

Question: What about the “CMC” value [2] of the same molecule?
Answer: The value was 90 ± 10 µM.

Question: What does the source list for CC(=O)OC1C(C)OC(OC2C(C)OC(OC(=O)[C@]34CCC(C)(C)CC3C3=CCC5[C@@]6(C)CC[C@H](OC7OC(C(=O)O)C(O)C(OC8OCC(O)C(O)C8O)C7OC7OC(CO)C(O)C(O)C7O)[C@@](C)(CO)C6CC[C@@]5(C)[C@]3(C)C[C@H]4O)C(OC3OC(C)C(OC4OCC(O)C(OC5OC(CO)C(O)C(O)C5O)C4O)C(O)C3O)C2O)C(O)C1OC1OCC(O)C(O)C1O (stereo partly shown) [SO1861-Ald-OH]?
Answer: IC50 [3]: 0.6 µM; IC50 [4]: 0.6 µM; IC50 ([5]; saponin alone, read-out: IC50 toxicity): 7000 nM; IC50 [6]: > 100000 nM; IC50 [7, 8]: 30000 nM; IC50 [7, 9]: 30000 nM; IC50 ([7]; read-out: IC50 hemolytic activity): 30000 nM; CMC [2]: 135 ± 14 µM
